In PubChem BioAssay (NCI):
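Grown in 96-well plates, cells were treated for 48 hours with each compound at five concentrations. Insufficient inhibition: endpoint recorded as highest concentration tested. TGI: concentration producing complete growth inhibition.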

system: OVCAR-3 ovarian; test: NCI anticancer screen, dose series, 48 h

SMILES	TGI [µM]
CC1(C)CC(=O)c2[nH]c3ccccc3c2CC(=O)NCCc2cn1cn2	> 100
CCOC(=O)c1c(NC(=O)c2cccs2)sc2c1CCCC2	> 100
Nc1ccc(-c2nc3cc(F)ccc3s2)cc1Cl	45.6
OC1(C(F)(F)F)OCCN=C1C(F)(F)F (configuration not stated)	> 100
N#Cc1c(-c2ccc(Cl)cc2)c2c([nH]c1=O)-c1ccccc1SC2	92.7
CCCC[C@@H]1CCN2C[C@@H](O)[C@@H](O)[C@@H]2[C@H]1O	> 100

system: U251 CNS; test: NCI anticancer screen, dose series, 48 h

SMILES	TGI [µM]
CC1(C)CC(=O)c2[nH]c3ccccc3c2CC(=O)NCCc2cn1cn2	> 100
CCOC(=O)c1c(NC(=O)c2cccs2)sc2c1CCCC2	> 91.9
Nc1ccc(-c2nc3cc(F)ccc3s2)cc1Cl	55.4
OC1(C(F)(F)F)OCCN=C1C(F)(F)F (configuration not stated)	> 100
N#Cc1c(-c2ccc(Cl)cc2)c2c([nH]c1=O)-c1ccccc1SC2	> 100
CCCC[C@@H]1CCN2C[C@@H](O)[C@@H](O)[C@@H]2[C@H]1O	> 100

system: MDA-N; test: NCI anticancer screen, dose series, 48 h

SMILES	TGI [µM]
CC1(C)CC(=O)c2[nH]c3ccccc3c2CC(=O)NCCc2cn1cn2	> 100
CCOC(=O)c1c(NC(=O)c2cccs2)sc2c1CCCC2	> 100
Nc1ccc(-c2nc3cc(F)ccc3s2)cc1Cl	> 100
OC1(C(F)(F)F)OCCN=C1C(F)(F)F (configuration not stated)	> 100
N#Cc1c(-c2ccc(Cl)cc2)c2c([nH]c1=O)-c1ccccc1SC2	> 100
CCCC[C@@H]1CCN2C[C@@H](O)[C@@H](O)[C@@H]2[C@H]1O	> 100

system: OVCAR-5 ovarian; test: NCI anticancer screen, dose series, 48 h

SMILES	TGI [µM]
CC1(C)CC(=O)c2[nH]c3ccccc3c2CC(=O)NCCc2cn1cn2	> 100
CCOC(=O)c1c(NC(=O)c2cccs2)sc2c1CCCC2	> 100
Nc1ccc(-c2nc3cc(F)ccc3s2)cc1Cl	28.8
OC1(C(F)(F)F)OCCN=C1C(F)(F)F (configuration not stated)	> 100
N#Cc1c(-c2ccc(Cl)cc2)c2c([nH]c1=O)-c1ccccc1SC2	> 100
CCCC[C@@H]1CCN2C[C@@H](O)[C@@H](O)[C@@H]2[C@H]1O	> 100

system: UACC-62 melanoma; test: NCI anticancer screen, dose series, 48 h

SMILES	TGI [µM]
CC1(C)CC(=O)c2[nH]c3ccccc3c2CC(=O)NCCc2cn1cn2	> 100
CCOC(=O)c1c(NC(=O)c2cccs2)sc2c1CCCC2	> 100
Nc1ccc(-c2nc3cc(F)ccc3s2)cc1Cl	> 100
OC1(C(F)(F)F)OCCN=C1C(F)(F)F (configuration not stated)	> 100
N#Cc1c(-c2ccc(Cl)cc2)c2c([nH]c1=O)-c1ccccc1SC2	> 100
CCCC[C@@H]1CCN2C[C@@H](O)[C@@H](O)[C@@H]2[C@H]1O	> 100

system: A498 renal; test: NCI anticancer screen, dose series, 48 h

SMILES	TGI [µM]
CC1(C)CC(=O)c2[nH]c3ccccc3c2CC(=O)NCCc2cn1cn2	> 100
CCOC(=O)c1c(NC(=O)c2cccs2)sc2c1CCCC2	> 96.3
Nc1ccc(-c2nc3cc(F)ccc3s2)cc1Cl	> 39.3
OC1(C(F)(F)F)OCCN=C1C(F)(F)F (configuration not stated)	> 100
N#Cc1c(-c2ccc(Cl)cc2)c2c([nH]c1=O)-c1ccccc1SC2	> 100
CCCC[C@@H]1CCN2C[C@@H](O)[C@@H](O)[C@@H]2[C@H]1O	> 100

system: UO-31 renal; test: NCI anticancer screen, dose series, 48 h

SMILES	TGI [µM]
CC1(C)CC(=O)c2[nH]c3ccccc3c2CC(=O)NCCc2cn1cn2	> 100
CCOC(=O)c1c(NC(=O)c2cccs2)sc2c1CCCC2	> 100
Nc1ccc(-c2nc3cc(F)ccc3s2)cc1Cl	> 100
OC1(C(F)(F)F)OCCN=C1C(F)(F)F (configuration not stated)	> 100
N#Cc1c(-c2ccc(Cl)cc2)c2c([nH]c1=O)-c1ccccc1SC2	> 100
CCCC[C@@H]1CCN2C[C@@H](O)[C@@H](O)[C@@H]2[C@H]1O	> 100

system: SW-620 colon; test: NCI anticancer screen, dose series, 48 h

SMILES	TGI [µM]
CC1(C)CC(=O)c2[nH]c3ccccc3c2CC(=O)NCCc2cn1cn2	> 100
CCOC(=O)c1c(NC(=O)c2cccs2)sc2c1CCCC2	> 100
Nc1ccc(-c2nc3cc(F)ccc3s2)cc1Cl	> 100
OC1(C(F)(F)F)OCCN=C1C(F)(F)F (configuration not stated)	> 100
N#Cc1c(-c2ccc(Cl)cc2)c2c([nH]c1=O)-c1ccccc1SC2	> 100
CCCC[C@@H]1CCN2C[C@@H](O)[C@@H](O)[C@@H]2[C@H]1O	> 100

system: SNB-75 CNS; test: NCI anticancer screen, dose series, 48 h

SMILES	TGI [µM]
CC1(C)CC(=O)c2[nH]c3ccccc3c2CC(=O)NCCc2cn1cn2	> 100
CCOC(=O)c1c(NC(=O)c2cccs2)sc2c1CCCC2	81.8
Nc1ccc(-c2nc3cc(F)ccc3s2)cc1Cl	51.8
OC1(C(F)(F)F)OCCN=C1C(F)(F)F (configuration not stated)	> 100
N#Cc1c(-c2ccc(Cl)cc2)c2c([nH]c1=O)-c1ccccc1SC2	69.5
CCCC[C@@H]1CCN2C[C@@H](O)[C@@H](O)[C@@H]2[C@H]1O	> 100

system: PC-3 prostate; test: NCI anticancer screen, dose series, 48 h

SMILES	TGI [µM]
CC1(C)CC(=O)c2[nH]c3ccccc3c2CC(=O)NCCc2cn1cn2	> 100
CCOC(=O)c1c(NC(=O)c2cccs2)sc2c1CCCC2	> 100
Nc1ccc(-c2nc3cc(F)ccc3s2)cc1Cl	> 100
